Test results taken from ChEMBL document CHEMBL1150965, “Aculeoside B, a new bisdesmosidic spirostanol saponin from the underground parts of Ruscus aculeatus” (J Nat Prod, 1998).
Values after ≈ are worked out from the molar mass of the structure shown.

System: HL-60
Experiment: Cytostatic activity against human HL60 cells after 72 hrs by MTT assay
Assay type: functional, cell-based
Details: HL-60, 72 h

## C=C1CO[C@@]2(O[C@H]3C[C@H]4[C@@H]5CC=C6C[C@@H](O)C[C@@H](O[C@@H]7OC[C@H](O)[C@H](O)[C@H]7O[C@@H]7O[C@@H](C)[C@H](OC(C)=O)[C@@H](OC(C)=O)[C@H]7OC(C)=O)[C@]6(C)[C@H]5CC[C@]4(C)[C@H]3[C@@H]2C)[C@@H](O)[C@H]1O[C@@H]1O[C@H](C)C(=O)[C@H](O)[C@H]1O [ACULEOSIDE A]
  IC50: 0.48 µg/mL (≈ 0.476 µM)
